In patent publication US20240197666A1, “DITERPENOID COMPOUNDS THAT ACT ON PROTEIN KINASE C (PKC)” (K-Gen Therapeutics, Inc., priority 2021, published 2024):
Read-outs that look alike come from different tables or passages of the source.

Columns and labels:
[1] = system: NFκB-driven transcription in HeLa-NFκB luciferase reporter cell line; assay: NFκB luciferase reporter assay; conditions: PKC inhibitor added at the same time as the PKC activator compounds
Procedure: A HeLa-NFκB luciferase reporter cell line (Wuxi Biology) was used to assess a group of PKC activator compounds for their ability to activate NFκB-driven transcription. […] One set of cells was assayed for luciferase activity (Promega, Cat #E1500) and the other set was assayed to determine the number of viable cells (for cell number normalization) using CellTiter-Glo (CTG) kit (Promega, Cat #G7570) according to manufacture's procedures. Normalized data (luciferase value/CTG value) were analyzed using GraphPad Prism5 to calculate EC50 for each compound (see Table 8).
To assess if activation of PKC is required for these compounds to activate NFκB, several PKC inhibitors including broad-spectrum and conventional PKC inhibitors were tested. In the assay described above, PKC inhibitors were added at the same time as the PKC activator compounds.

[2] = system: A549 cell line; assay: Proliferation of A549 (CellTiter Glo); assay type: cell-based; conditions: Homo sapiens, read-out: IC50 μM (A549 Cell Line)
Procedure: The diterpenoid compounds were tested in A549, a non-small cell lung cancer cell line harboring a K-Ras activating mutation. Briefly, A549 cells at a density of 1,000 cells/well were seeded in 96-well plates and incubated at 37° C. for 24 hours. A series of different concentrations of compound stocks (500×) were prepared by 3-fold serial dilution in DMSO. These compounds were further diluted in culture media and then added to cells so that the final DMSO concentration was not exceeding 0.25%. After 96 hours of incubation, 50 μL of CellTiter Glo reagent (Promega) was added to each well and luminescence was measured after 10 minutes using EnVision (PerkinElmer). Luminescence from cells treated with DMSO alone was set as Max and % of inhibition was calculated as follows: Inhibition %=(Max-Sample value)/Max×100. Data was analyzed using XL-fit software (ID Business Solutions Ltd.) and IC50, relative IC50, and % of top inhibition was calculated. Some of the compounds in this disclosure were very potent in blocking proliferation of A549 lung cancer cells at low nM range. In addition, potency of inhibiting A549 proliferation correlated well with its binding affinity to PKCs for this series of compounds. In other words, higher affinity binders had stronger inhibitory effects on A549 proliferation. This further support the notion that activation, rather than inhibition, of certain PKC isoforms is required to block proliferation of cancer cells, some of which may harbor K-Ras mutations. This is in sharp contrast to previous literature and common belief that inhibition of PKC is necessary to block cancer cell growth (Kang, 2014, New Journal of Science, 2014:1-36). Data presented here is in agreement with recent findings that many loss-of-function but not gain-of-function mutations of PKC isoforms have been identified in many human cancers (Antal et al., 2015, Cell, 160:489-502).

For `Cn1c2ccccc2c2c3c(c4c5ccccc5n(CCC#N)c4c21)CNC3=O` [Compound G66976, G66976, reference compound], which “block of NFκB activation induced by PKC activator compounds” value [1] is on record?
The value was “unable to block”.

For `CC1=C[C@H]2[C@@]3(O)[C@H](C)C[C@]4(OC(=O)C5CC6(CNC6)C5)[C@H]([C@@H]3C=C(CO)C[C@]2(O)C1=O)C4(C)C`, which IC50 ([2]; A549, 96 h) is on record?
Its IC50 is > 30 µM.

With `CCCCCCCCCCCCCCCCCCC(CC(=O)O[C@@]12C[C@@H](C)[C@@]3(O)[C@@H](C=C(CO)C[C@]4(O)C(=O)C(C)=C[C@@H]34)[C@@H]1C2(C)C)C(=O)O` (stereo partly drawn) as the molecule, how does the IC50 ([2]; A549, 96 h) read?
The IC50 was 5 to 10 µM.

`CC1=C[C@H]2[C@@]3(O)[C@H](C)C[C@]4(OC(=O)[C@H](O)Cc5ccccc5)[C@H]([C@@H]3C=C(CO)C[C@]2(O)C1=O)C4(C)C` was tested. Which IC50 ([2]; A549, 96 h) did it give?
The IC50 was 2 to 5 µM.

With `CC1=C[C@H]2[C@@]3(O)[C@H](C)C[C@]4(OC(=O)[C@@H](N)C56CC(C(F)(F)F)(C5)C6)[C@H]([C@@H]3C=C(CO)C[C@]2(O)C1=O)C4(C)C` as the molecule, how does the IC50 ([2]; A549, 96 hours, CellTiter Glo) read?
Its IC50 is 0.06 to 0.1 µM.

For `CC1=C[C@H]2[C@@]3(O)[C@H](C)C[C@]4(OC(=O)[C@@H](N)CCCCCCc5ccccc5)[C@H]([C@@H]3C=C(COC(=O)[C@@H](N)C(C)C)C[C@]2(O)C1=O)C4(C)C`, which IC50 ([2]; A549, 96 hours, CellTiter Glo) is on record?
The IC50 was 0.01 to 0.03 µM.

With `CC1=C[C@H]2[C@@]3(O)[C@H](C)C[C@]4(OC(=O)[C@@H](N)CC5CCC5)[C@H]([C@@H]3C=C(CO)C[C@]2(O)C1=O)C4(C)C` as the molecule, how does the IC50 ([2]; A549, 96 h) read?
Its IC50 is 1 to 2 µM.

Which IC50 ([2]; A549, 96 h) does the source give for `CC1=C[C@H]2[C@@]3(O)[C@H](C)C[C@]4(OC(=O)[C@@H](N)CC5CCCC5)[C@H]([C@@H]3C=C(CO)C[C@]2(O)C1=O)C4(C)C` here?
The IC50 was 0.1 to 0.2 µM.

`CC1=C[C@H]2[C@@]3(O)[C@H](C)C[C@]4(O)[C@H]([C@@H]3C=C(CO)C[C@]2(O)C1=O)C4(C)C` was tested. Which IC50 ([2]; A549, 96 h) did it give?
Its IC50 is > 30 µM.

Which IC50 ([2]; A549, 96 h) does the source give for `CC1=C[C@H]2[C@@]3(O)[C@H](C)C[C@]4(OC(=O)C[C@@H](N)c5ccccc5)[C@H]([C@@H]3C=C(CO)C[C@]2(O)C1=O)C4(C)C` here?
The IC50 was 2 to 5 µM.

`COc1ccc2c(c1)c(C1=C(c3c[nH]c4ccccc34)C(=O)NC1=O)cn2CCCN(C)C` [Gö6983, reference compound] was tested. Which “block of NFκB activation induced by PKC activator compounds” value [1] did it give?
Its value is “completely block”.

`CC1=C[C@H]2[C@@]3(O)[C@H](C)C[C@]4(OC(=O)CCc5cnn(C)c5)[C@H]([C@@H]3C=C(CO)C[C@]2(O)C1=O)C4(C)C` was tested. Which IC50 ([2]; A549, 96 h) did it give?
Its IC50 is 2 to 5 µM.

For `CC1=C[C@H]2[C@@]3(O)[C@H](C)C[C@]4(OC(=O)C(Cc5ccccc5)C(=O)O)[C@H]([C@@H]3C=C(CO)C[C@]2(O)C1=O)C4(C)C` (stereo partly drawn), which IC50 ([2]; A549, 96 h) is on record?
Its IC50 is 1 to 2 µM.

For `CC1=C[C@H]2[C@@]3(O)[C@H](C)C[C@]4(OC(=O)[C@H](CC5CCCCC5)N(C)C)[C@H]([C@@H]3C=C(CO)C[C@]2(O)C1=O)C4(C)C`, which IC50 ([2]; A549, 96 h) is on record?
Its IC50 is 0.6 to 1 µM.

How did the IC50 ([2]; A549, 96 h) turn out when `CC1=C[C@H]2[C@@]3(O)[C@H](C)C[C@]4(OC(=O)[C@@H](N)CCS(C)(=O)=O)[C@H]([C@@H]3C=C(CO)C[C@]2(O)C1=O)C4(C)C` was run?
The IC50 was > 30 µM.
